Assay results published in PMC6820371, “Terbium-161 for PSMA-targeted radionuclide therapy of prostate cancer” (European Journal of Nuclear Medicine and Molecular Imaging, 2019).
“Also recorded” adds a separate entry of the source. Like-named read-outs stand apart in the source and are kept apart here. Marks after values point to notes of the source that are not given here.

Columns and labels:
[1] = Stability of radioligand incubated in saline (radiolytic degradation); format: physicochemical
Description: (§1) The radiolabeling of PSMA-617 (Advanced Biochemical Compounds, ABX GmbH, Radeberg, Germany) with ^161Tb was performed under standard labeling conditions (Supplementary material). […] The n-octanol/PBS distribution coefficient (logD) was determined for ^161Tb-PSMA-617 (Supplementary material). All of these experiments were performed as previously reported for ^177Lu-PSMA-617 [27].

[2] = n-octanol/PBS distribution coefficient (logD), shake-flask method; format: physicochemical; conditions: PBS pH 7.4
Description: as §1
It was diluted in PBS pH 7.4 (∼500 kBq, 25 µL, 0.01 nmol) and added to polypropylene tubes containing 1475 µL PBS and 1500 µL n-octanol followed by vigorous vortexing for 1 min. Phase separation was obtained by centrifugation at 1200 rcf for 6 min. The distribution coefficients were calculated as the logarithm of the ratio of counts per minute (cpm) measured in the n-octanol phase relative to the cpm measured in the PBS pH 7.4 phase using a γ-counter (Perkin Elmer, Wallac Wizard 1480). At least three experiments were performed in quintuplicate.

[3] = test system: PSMA-negative PC-3 flu tumor cells; test: Tumor cell uptake and internalization; format: cell-based; conditions: 2–4 h incubation
PC-3 PIP tumor cells = test: Cell survival assay (clonogenic assay); format: cell-based, human; conditions: 0.05–5.0 MBq/mL, p < 0.05
[4] = test system: PC-3 PIP tumor-bearing mice; test: Therapy study - assessment of potential early side effects; format: in vivo; design: key to Histology: Bone marrow sternum / Histology: Sternum (bone) / Histology: Bone marrow femur / Histology: Femur and tibia (bone) / Histology: Salivary glands / Histology: Mandibular lymph node: NHAIR: no histological abnormality is recognized; IC: increased cellularity, myeloid lineage; SH: Sinus histiocytosis; LH: lymphoid hyperplasia; 1: minimal severity; 2: mild; 3: moderate; 4: marked; 5: severe; conditions: for ALB (blood plasma) / ALP (blood plasma) / BUN (blood plasma) / CRE (blood plasma) / TBIL (blood plasma): at euthanasia; for Brain mass / Kidney mass / Liver mass / Spleen Mass: day of euthanasia; for Histology: Bone marrow femur / Histology: Bone marrow sternum / Histology: Femur and tibia (bone) / Histology: Mandibular lymph node / Histology: Salivary glands / Histology: Sternum (bone): individual mice M1-M6
Description: Potential early side-effects related to the exposure to radiation were evaluated by the assessment of absolute and relative (to body and to brain) organ weights, selected clinical chemistry plasma parameters including creatinine (CRE), blood urea nitrogen (BUN), alkaline phosphatase (ALP), total bilirubin (TBIL), and albumin (ALB), as well as via histological analysis of bone marrow and salivary glands. The data were analyzed for statistical significance (Supplementary material).
Body and organ mass and mass ratios: As a measure to identify undesired side effects, body weights were compared at the day when the first control mouse had to be euthanized (Day 18; Table S3). The relative body weight (RBW) and the relative tumor volume (RTV) were calculated as stated in the main manuscript. Kidneys, liver, spleen and brain were collected and weighed at the day of euthanasia when an endpoint was reached or at the end of the study at Day 84 (Table S3). The organ mass-to-body mass and the organ-mass-to-brain-mass ratios were calculated for kidneys, liver and spleen (Table S4). The average organ masses of mice from each group were analyzed for significance using a one-way ANOVA test with a Tukey’s post correction (GraphPad Prism software, version 7). A p-value of <0.05 was considered as statistically significant.
Blood plasma parameters: Blood was taken from the retrobulbar vein immediately before euthanasia for determination of blood plasma parameters. The values of creatinine (CRE), blood urea nitrogen (BUN), alkaline phosphatase (ALP), total bilirubin (BIL) and albumin (ALB) were determined in the plasma after centrifugation of the blood using a dry chemistry analyzer (DRI-CHEM 4000i, FUJIFILM, Japan) (Table S5). The average blood plasma parameters of each group were analyzed for significance using a one-way ANOVA test with a Tukey’s post correction (GraphPad Prism software, version 7). A p-value of <0.05 was considered as statistically significant.
Necropsy, tissue processing and histological examination: After euthanasia and exsanguination, mice were dissected and, after a full macroscopic examination, sternum, femur and salivary glands were quickly removed and fixed in 4% neutral-buffered formalin (Formafix, Hittnau, Switzerland). After adequate fixation, femoral and sternal bones were decalcified in 10% ethylenediamine tetraacetic acid over a period of 5 days. Both bones and the salivary glands were subsequently trimmed, dehydrated through graded alcohols and routinely paraffin wax embedded. Sections (3–5 µm) were prepared, mounted on glass slides and routinely stained with hematoxylin and eosin (HE). Microscopic findings in the HE-stained livers were classified with standard pathological nomenclature and grading system.

[5] = test system: PC-3 PIP tumor-bearing mice; conditions: for Median Survival: control 19 days
Description: Athymic nude BALB/c mice were obtained from Charles River Laboratories (Sulzfeld, Germany) at the age of 5–6 weeks. […] Therapy studies were performed with mice inoculated with PC-3 PIP cells (4 × 10^6 cells in HBSS with Ca^2+/Mg^2+) on the right shoulder (Supplementary material).
Three groups of mice (n = 6) were injected with only saline, ^161Tb-PSMA-617 (5.0 MBq; 1 nmol/mouse), or ^161Tb-PSMA-617 (10 MBq; 1 nmol/mouse) at Day 0 of the therapy, 6 days after PC-3 PIP tumor cell inoculation (Table 1). The mice were monitored by measuring body weights and the tumor sizes every other day over 12 weeks. Mice were euthanized when pre-defined endpoint criteria were reached, or when the study was terminated at Day 84 (Supplementary material). The relative body weight (RBW) was defined as [BWx/ BW0], where BWx is the body weight in gram at a given day x, and BW0 the body weight in grams at Day 0. The tumor dimension was determined by measuring the longest tumor axis (L) and its perpendicular axis (W) with a digital caliper. The tumor volume (V) was calculated according to the eq. [V = 0.5 * (L * W^2)]. The relative tumor volume (RTV) was defined as [TVx/TV0], where TVx is the tumor volume in mm^3 at a given day x, and TV0 the tumor volume in mm^3 at Day 0.
The efficacy of the radionuclide therapy was assessed by the tumor growth delay (TGDx), which was calculated as the time required for the tumor volume to increase x-fold over the initial volume at Day 0. The tumor growth delay index [TGDIx = TGDx(T)/TGDx(C)] was calculated as the TGDx ratio of treated mice (T) over control mice (C) for a 2-fold (x = 2, TGD2) and 5-fold (x = 5, TGD5) increase of the initial tumor volume. Statistical analysis was performed by a one-way ANOVA with Tukey’s multiple comparison post-test using GraphPad Prism software (version 7). A value of p < 0.05 was considered statistically significant. The median survival was calculated by Kaplan–Meier curves using GraphPad Prism software (version 7).
Methods: The therapy was started at Day 0 by injecting mice with the radioligands, 6 days after PC-3 PIP tumor cell inoculation (4×10^6 cells in HBSS with Ca^2+/Mg^2+) on the right shoulder.
Endpoint criteria: Mice were euthanized when a predefined endpoint criterion was reached or when the study was finalized at Day 84. Endpoint criteria were defined as (i) body weight loss of >15%, (ii) a tumor volume of >800 mm^3 (iii) a combination of body weight loss of >10% and a tumor volume of >700 mm^3 or (iv) signs of unease and pain or a combination thereof.

O=C([O-])CN1CCN(CC(=O)[O-])CCN(CC(=O)NCC2CCC(C(=O)NC(Cc3ccc4ccccc4c3)C(=O)NCCCCC(NC(=O)NC(CCC(=O)O)C(=O)O)C(=O)O)CC2)CCN(CC(=O)[O-])CC1.[161Tb+3] (stereo not drawn) [^161Tb-PSMA-617]
Stability (intact radioligand) ([1]; 50 MBq/nmol, 250 MBq/500 μL, at least 1 h, without L-ascorbic acid): > 98%
Stability when incubated for longer time periods ([1]; 250 MBq/500 μL, longer than 1 h, without L-ascorbic acid): radiolytic degradation
Stability (intact radioligand) ([1]; in the presence of L-ascorbic acid, up to 24 h): ≥ 98%
n-octanol/PBS distribution coefficient (logD value) [2]: −3.9 ± 0.1
Uptake in PC-3 flu tumor cells [3]: < 0.5%
Reduction of tumor-cell survival compared to ^177Lu-PSMA-617 (PC-3 PIP tumor cells): significantly more effective
Body weight at Day 0 ([4]; 5.0 MBq): 17 ± 1.2 g
Body weight at Day 18 ([4]; 5.0 MBq): 17 ± 1.2 g
Body weight at Day of euthanasia ([4]; 5.0 MBq): 15 ± 1.7 g
Body weight over time ([4]; 5.0 MBq): body weight loss over time
Kidney-to-body ratio ([4]; 5.0 MBq): 0.014 ± 0.001
Kidney-to-brain ratio ([4]; 5.0 MBq): 0.50 ± 0.11
Liver-to-body ratios ([4]; 5.0 MBq): 0.048 ± 0.010
Liver-to-brain ratios ([4]; 5.0 MBq): 1.8 ± 0.71
Spleen-to-body ratios ([4]; 5.0 MBq): 0.004 ± 0.001
Spleen-to-brain ratios ([4]; 5.0 MBq): 0.16 ± 0.05
Undesired side-effects ([4]; 5.0 MBq and 10 MBq): no signs of undesired side-effects were detectable
ALB (blood plasma) ([4]; 5.0 MBq): 21 ± 1 g/L
ALP (blood plasma) ([4]; 5.0 MBq): 44 ± 1 U/L
BUN (blood plasma) ([4]; 5.0 MBq): 8.3 ± 0.50 mmol/L
CRE (blood plasma) ([4]; 5.0 MBq): <18 µmol/L
TBIL (blood plasma) ([4]; 5.0 MBq): 4 ± 1 µmol/L
Brain mass ([4]; 5.0 MBq): 371 ± 15 mg
Kidney mass ([4]; 5.0 MBq): 208 ± 19 mg
Liver mass ([4]; 5.0 MBq): 737 ± 143 mg
Spleen Mass ([4]; 5.0 MBq): 63 ± 13 mg
Histology: Bone marrow femur ([4]; 5 MBq): NHAIR
Histology: Bone marrow sternum ([4]; 5 MBq): NHAIR
Histology: Femur and tibia (bone) ([4]; 5 MBq): NHAIR
Histology: Mandibular lymph node ([4]; 5 MBq): NHAIR and SH 1 and LH 1
Histology: Salivary glands ([4]; 5 MBq): NHAIR
Histology: Sternum (bone) ([4]; 5 MBq): NHAIR
Histological changes in the bone marrow and the salivary glands attributable to application ([4]; 5.0 and 10 MBq/mouse): no histological changes
Blood plasma parameters compared to control group ([4]; 5.0 and 10 MBq/mouse, p>0.05): did not show any significant differences
Body weight at Day 0 ([4]; 10 MBq): 18 ± 1.0*^3) g
Body weight at Day 18 ([4]; 10 MBq): 19 ± 1.2*^4) g
Body weight at Day of euthanasia ([4]; 10 MBq): 19 ± 1.6*^5) g
Body weight over time ([4]; 10 MBq): remained stable
Kidney-to-body ratio ([4]; 10 MBq): 0.014 ± 0.001
Kidney-to-brain ratio ([4]; 10 MBq): 0.64 ± 0.09^*2)
Liver-to-body ratios ([4]; 10 MBq): 0.054 ± 0.002
Liver-to-brain ratios ([4]; 10 MBq): 2.5 ± 0.87
Spleen-to-body ratios ([4]; 10 MBq): 0.005 ± 0.001
Spleen-to-brain ratios ([4]; 10 MBq): 0.23 ± 0.05^*3)
ALB (blood plasma) ([4]; 10 MBq): 19 ± 1 g/L
ALP (blood plasma) ([4]; 10 MBq): 54 ±15 U/L
BUN (blood plasma) ([4]; 10 MBq): 7.8 ± 1.3 mmol/L
CRE (blood plasma) ([4]; 10 MBq): <18 µmol/L
TBIL (blood plasma) ([4]; 10 MBq): 4 ± 1 µmol/L
Brain mass ([4]; 10 MBq): 402 ± 18 mg
Kidney mass ([4]; 10 MBq): 258 ± 41*^5) mg
Liver mass ([4]; 10 MBq): 994 ± 65*^5) mg
Spleen Mass ([4]; 10 MBq): 92 ± 22*^5) mg
Histology: Bone marrow femur ([4]; 10 MBq): NHAIR
Histology: Bone marrow sternum ([4]; 10 MBq): IC 1 and NHAIR
Histology: Femur and tibia (bone) ([4]; 10 MBq): NHAIR
Histology: Mandibular lymph node ([4]; 10 MBq): SH 2 LH 1 and SH 1 and LH 1 and NHAIR
Histology: Salivary glands ([4]; 10 MBq): NHAIR
Histology: Sternum (bone) ([4]; 10 MBq): NHAIR
First mouse euthanized ([5]; 5.0 MBq/mouse): 30 days
Last mouse euthanized ([5]; 5.0 MBq/mouse): 66 days
TGDI2 ([5]; 5.0 MBq/mouse): 4.2 ± 1.2
TGDI3 ([5]; 5.0 MBq/mouse): 2.5 ± 0.6
Median Survival ([5]; 5.0 MBq/mouse): 36 days
First mouse euthanized ([5]; 10 MBq/mouse): 42 days
Mice still alive at the end of the study at Day 84 ([5]; 10 MBq/mouse, n = 6): two
Mice in which PC-3 PIP tumors disappeared entirely ([5]; 10 MBq/mouse, n = 6, over 12 weeks): two of the six; also recorded: two out of six
Median Survival ([5]; 10 MBq/mouse): 65 days
Last mouse euthanized ([5]; 10 MBq/mouse, study end at Day 84, 2 mice had not reached an endpoint): 84^1) Day
